Data from the supplement of paper PMC4862054.

How the values were obtained:
Experiment in all cases: normalised response (% of control), CellTiter-Glo; higher = more viable cells (100 = DMSO, 0 = benzethonium chloride kill control)
Settings in all cases: incubation time: 72 h
MDA-MB-468 = system: MDA-MB-468
Summary of the method: (§1)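 Two readouts were taken after 72 h: CellTox Green fluorescence (485/520 nm) first, then CellTiter-Glo luminescence after 10 min at room temperature. Breast cancer cell lines had been seeded as 20 µl suspension into 384-well plates holding compound at 5 concentrations in 10-fold steps across a compound-specific 10,000-fold range. Each value is a normalised signal at a single concentration, with plates scaled to 0.1 % DMSO (100) and a positive kill control (0).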

MDA-MB-231 = system: MDA-MB-231
Summary of the method: as §1

SK-BR-3 = system: SK-BR-3
Summary of the method: as §1

HCC1937 = system: HCC1937
Summary of the method: as §1

BT-549 = system: BT-549
Summary of the method: as §1

MFM-223 = system: MFM-223
Summary of the method: as §1

MDA-MB-453 = system: MDA-MB-453
Summary of the method: as §1

MDA-MB-436 = system: MDA-MB-436
Summary of the method: as §1

BT-474 = system: BT-474
Summary of the method: as §1

HCC1143 = system: HCC1143
Summary of the method: as §1

Hs578T = system: Hs578T
Summary of the method: as §1

CAL-85-1 = system: CAL-85-1
Summary of the method: as §1

DU-4475 = system: DU-4475
Summary of the method: as §1

CAL-51 = system: CAL-51
Summary of the method: as §1

HDQ-P1 = system: HDQ-P1
Summary of the method: as §1

CAL-148 = system: CAL-148
Summary of the method: as §1

CAL-120 = system: CAL-120
Summary of the method: as §1

HCC1599 = system: HCC1599
Summary of the method: as §1

MCF-10A = system: MCF-10A
Summary of the method: as §1

Row | SMILES | normalised response (MDA-MB-468) | normalised response (MDA-MB-231) | normalised response (SK-BR-3) | normalised response (HCC1937) | normalised response (BT-549) | normalised response (MFM-223) | normalised response (MDA-MB-453) | normalised response (MDA-MB-436) | normalised response (BT-474) | normalised response (HCC1143) | normalised response (Hs578T) | normalised response (CAL-85-1) | normalised response (DU-4475) | normalised response (CAL-51) | normalised response (HDQ-P1) | normalised response (CAL-148) | normalised response (CAL-120) | normalised response (HCC1599) | normalised response (MCF-10A)
1 | Nc1ncn([C@H]2C[C@H](O)[C@@H](CO)O2)c(=O)n1 [Decitabine] (1 nM) | 102% | 104% | 96.2% | 101% | 90% | 96.4% | 110% | 96.5% | 99.1% | 90.8% | 94.3% | 99% | 102% | 76.5% | 98.2% | 92.1% | 97% | 99.7% | 92.4%
2 | COc1cc([C@@H]2c3cc4c(cc3[C@@H](O[C@@H]3O[C@@H]5CO[C@@H](c6cccs6)O[C@H]5[C@H](O)[C@H]3O)[C@H]3COC(=O)[C@H]23)OCO4)cc(OC)c1O [Teniposide] (1 nM) | 95.9% | 94.1% | 101% | 106% | 103% | 96% | 91.8% | 96.9% | 99.3% | 100% | 106% | 99% | 99% | 125% | 96.4% | 102% | 95.8% | 107% | 106%
3 | O=C(O)C(=O)O.[NH-][C@@H]1CCCC[C@H]1[NH-].[Pt+2] [Oxaliplatin] (1 nM) | 86.7% | 94.2% | 90% | 93.9% | 103% | 91.2% | 86.8% | 106% | 91.9% | 93.2% | 98.9% | 91.3% | 91.7% | 110% | 98.2% | 91.3% | 98.5% | 95% | 96.6%
4 | CCN(CC)CCCC(C)Nc1c2ccc(Cl)cc2nc2ccc(OC)cc12 (stereo not drawn) [Mepacrine] (50 nM) | 103% | 94% | 95.3% | 104% | 104% | 98.7% | 96.1% | 96.2% | 102% | 98% | 99.1% | 101% | 96.1% | 120% | 104% | 96.8% | 98.6% | 106% | 92.9%
5 | CCCS(=O)(=O)Nc1ccc(F)c(C(=O)c2c[nH]c3ncc(-c4ccc(Cl)cc4)cc23)c1F [Vemurafenib] (1 nM) | 95% | 95.9% | 86.9% | 91.5% | 95% | 88% | 83.4% | 88% | 97.2% | 85.1% | 95.3% | 98% | 96.7% | 92.5% | 89.6% | 84.2% | 92.4% | 95.6% | 82.1%
6 | C=CC(=O)N1CCC[C@@H](n2nc(-c3ccc(Oc4ccccc4)cc3)c3c(N)ncnc32)C1 [Ibrutinib] (0.1 nM) | 103% | 102% | 109% | 97.3% | 102% | 106% | 110% | 96.8% | 101% | 96.3% | 104% | 100% | 102% | 99.3% | 93.6% | 101% | 97.1% | 104% | 109%
7 | O=C(Cc1ccc(-c2ccc(OCCN3CCOCC3)cc2)cn1)NCc1ccccc1 [KX2-391] (10 nM) | 94.6% | 100% | 87.6% | 98.4% | 102% | 106% | 101% | 98% | 103% | 104% | 103% | 97.3% | 104% | 73.2% | 98% | 112% | 101% | 100% | 107%
8 | CCc1cncnc1N1CCN(Cc2nc3ccc(C(F)(F)F)cc3[nH]2)CC1 (1 nM) | 109% | 105% | 110% | 95.5% | 108% | 103% | 115% | 107% | 107% | 99.5% | 101% | 97.3% | 103% | 125% | 105% | 106% | 101% | 114% | 106%
9 | CC1=C(/C=C/C(C)=C/C=C/C(C)=C/C(=O)O)C(C)(C)CCC1 [Tretinoin] (1 nM) | 102% | 101% | 107% | 106% | 104% | 99.2% | 97.1% | 107% | 102% | 99.5% | 102% | 98.5% | 101% | 102% | 98.7% | 102% | 98.7% | 92% | 105%
10 | Nc1nc(F)nc2c1ncn2[C@@H]1O[C@H](CO)[C@@H](O)[C@@H]1O [Fludarabine] (1 nM) | 103% | 99.9% | 111% | 99.3% | 101% | 109% | 112% | 120% | 111% | 110% | 110% | 101% | 99.8% | 93.1% | 103% | 97.2% | 98.4% | 102% | 113%
11 | N#Cc1ccc(C(c2ccc(C#N)cc2)n2cncn2)cc1 [Letrozole] (10 nM) | 99.6% | 101% |  | 97.6% | 95.3% | 103% | 102% | 97.1% | 103% | 97.4% | 103% | 99.9% | 98.2% | 126% | 97.8% | 99.3% | 95.7% | 98.2% | 108%
12 | Oc1ncc(N(CCCl)CCCl)c(O)n1 [Uracil mustard] (10 nM) | 90.3% | 105% |  | 99.7% | 97.2% | 103% | 88.8% | 105% | 103% | 105% | 107% | 95.2% | 97.7% | 80.1% | 95.1% | 107% | 102% | 87% | 106%
13 | Cc1cnc(NC(=O)Nc2cc(Br)c(C)cc2OC[C@@H]2CNCCO2)cn1 [Rabusertib] (1 nM) | 94.9% | 107% |  | 106% | 94.6% | 113% | 109% | 104% | 103% | 104% | 102% | 103% | 108% | 115% | 90.4% | 118% | 98.1% | 101% | 105%
14 | CCCCC(=O)OCC(=O)[C@]1(O)Cc2c(O)c3c(c(O)c2[C@@H](O[C@H]2C[C@H](NC(=O)C(F)(F)F)[C@H](O)[C@H](C)O2)C1)C(=O)c1c(OC)cccc1C3=O [Valrubicin] (5 nM) | 93.1% | 97% |  | 102% | 91.1% | 105% | 103% | 101% | 97.6% | 102% | 102% | 95.6% | 101% | 60.1% | 95.5% | 105% | 94.6% | 96.5% | 106%
15 | CCc1cncnc1N1CCN(Cc2nc3ccc(C(F)(F)F)cc3[nH]2)CC1 (10 nM) | 101% | 108% |  | 98.1% | 93.2% | 103% | 110% | 109% | 108% | 111% | 107% | 99.1% | 104% | 111% | 98.8% | 115% | 101% | 98.7% | 113%
16 | Nc1ccccc1NC(=O)c1ccc(CNC(=O)OCc2cccnc2)cc1 [Entinostat] (10 nM) | 98.4% | 98.6% |  | 99.5% | 96.8% | 103% | 94.6% | 102% | 100% | 101% | 102% | 107% | 101% | 94% | 97.5% | 104% | 94.2% | 95.7% | 109%
17 | Nc1ncn([C@H]2C[C@H](O)[C@@H](CO)O2)c(=O)n1 [Decitabine] (10 nM) | 96% | 102% |  | 94.6% | 93% | 103% | 97.7% | 97.3% | 104% | 103% | 96.3% | 90% | 105% | 124% | 98.8% | 95.4% | 103% | 102% | 98.5%
18 | COc1cc([C@@H]2c3cc4c(cc3[C@@H](O[C@@H]3O[C@@H]5CO[C@@H](c6cccs6)O[C@H]5[C@H](O)[C@H]3O)[C@H]3COC(=O)[C@H]23)OCO4)cc(OC)c1O [Teniposide] (10 nM) | 98.3% | 99.4% |  | 101% | 91.9% | 98% | 101% | 89.7% | 96.8% | 96.9% | 100% | 100% | 78.2% | 112% | 95.3% | 93.2% | 105% | 103% | 98.8%
19 | O=C(O)C1(C(=O)O)CCC1.[NH2-].[NH2-].[Pt+2] [Carboplatin] (10 nM) | 96.8% | 97% |  | 96.6% | 102% | 98.4% | 99.7% | 95.4% | 103% | 104% | 101% | 99.5% | 95.9% | 57.9% | 96.9% | 105% | 99.3% | 99.2% | 103%
20 | Nc1nc(F)nc2c1ncn2[C@@H]1O[C@H](CO)[C@@H](O)[C@@H]1O [Fludarabine] (10 nM) | 105% | 109% |  | 107% | 101% | 110% | 103% | 109% | 108% | 108% | 105% | 98.8% | 107% | 120% | 97% | 108% | 101% | 98.5% | 116%
21 | Cc1ccc(-c2cc(C(F)(F)F)nn2-c2ccc(S(N)(=O)=O)cc2)cc1 [Celecoxib] (10 nM) | 100% | 100% |  | 98.3% | 102% | 102% | 115% | 105% | 27.3% | 104% | 107% | 103% | 101% | 106% | 98.1% | 102% | 101% | 105% | 105%
